Where two headings read alike, the source gives them in different places.
Assays:
A2780 cells [1] = assay: A2780 cells treated with increasing doses of Epirubicin with and without 10 Gy radiation (RIN, RDI, RNA concentration); type: cell-based; settings: with 10 Gy radiation, 96 h post-radiation
Protocol: A2780 cells were treated with increasing doses of Epirubicin with and without 10 Gy radiation.A2780 cells were plated into 6 cm plates in 4 ml of RPMI culture medium. The plates were placed in the incubator and the cells were allowed to adhere overnight. The next day, the medium was removed from all plates and new media containing the appropriate epirubicin concentration (1 pM, 5 pM, 20 nM, 50 nM, and 100 nM) was added to the plates. Cells were pre-treated for 24 h with epirubicin prior to receiving radiation treatment. The following day (24 h post epirubicin drug-treatment), the cells were given 10 Gy of x-ray radiation treatment (300 kV, 9 mA) in approximately 4.3 min of x-ray exposure using a RS320 Irradiation System (Gulmay Medical) The cells were returned to the cell culture incubator, and RNA was extracted from the cells 96 h post-radiation treatment (which corresponds to 120 h post-epirubicin treatment).

MCF-7 cells = MCF-7 cells treated with increasing doses of Epirubicin with and without 10 Gy radiation (RIN, RDI, RNA concentration); type: cell-based
Protocol: FIG. 9: Graphs of MCF-7 cells were treated with increasing doses of Epirubicin with and without 10 Gy radiation. A) RIN value vs. Epirubicin; B) RDI value vs. Epirubicin; C) RNA concentration vs. Epirubicin Dose.

[2] = system: anthracycline-resistant metastatic breast cancer; settings: cited from earlier work
[3] = system: A2780 ovarian tumour cells; assay: RNA concentration and RIN in A2780 cells after radiation with or without docetaxel; type: cell-based
Protocol: Experiments were conducted to assess whether radiation with or without docetaxel treatment could induce changes in cellular RNA concentration and/or RIN values in A2780 ovarian tumour cells. […] In contrast under the tested conditions, radiation doses up to 5 Gray had no effect on cellular RNA integrity, as no changes in RIN values were observed compared to samples prior to radiation treatment (FIG. 5B). If cells were pre-incubated for 24 hours with 0.1 μM docetaxel prior to 10 Gray radiation treatment, the cellular RIN value decreased to 75% of pre-treatment values. There were additional decreases in RIN when radiation and chemotherapy were used together concurrently. […] Moreover, the combination of both radiation and docetaxel treatment induces even stronger reductions in both cellular RNA content and RNA integrity. These observations are consistent with those described above for tumours of patients with locally advanced breast cancer, in particular for the combined therapy post-treatment, where RNA concentration fell dramatically in response to FEC-D chemotherapy with concurrent radiation therapy and where differences between between responding patients (pCR) and non-reponding patients (no pCR) appeared to be observed post-treatment.

A2780 cells [4] = assay: A2780 cells treated with 5 nM Docetaxel, 10 Gy radiation or both for 72 or 96 hours (RIN, RDI); type: cell-based; settings: n=3
Protocol: In another experiment, A2780 cells were treated with 5 nM Docetaxel, 10 Gy Radiation and 10 Gy Radiation+5 nM Docetaxel for 72 hours or 96 hours.

[5] = system: MCF-7 breast tumour cells; assay: RNA concentration and RIN in MCF-7 cells after radiation with or without docetaxel; type: cell-based
Protocol: The effects of the above treatments on MCF-7 (ER+, HER2−) cells (FIGS. 7A and 7B) were examined, findings were similar to those of SKBR3 cells, with 4% and 73% reductions in RNA levels observed for the 10 Gray and 10 Gray/0.1 μM docetaxel treatments, respectively. […] Moreover, only a 4% reduction in cellular RIN values were observed when cells were pre-treated with 0.1 μM docetaxel prior to the 10 Gray radiation.

[6] = system: SKBR3 breast tumour cells; assay: RNA concentration and RIN in SKBR3 cells after radiation with or without docetaxel; type: cell-based
Protocol: It was then examined whether similar observations could be observed in vitro for specific breast tumour cell lines. […] If cells were pre-treated with 0.1 μM docetaxel prior to 10 Gray radiation, a 5-fold reduction in cellular RNA concentration was observed (19% of untreated cells). RNA concentration decreases 2 fold (or more) in BT-20, A2780 and MB-468 cells with radiation only. […] Concurrent docetaxel treatment with radiation therapy dramatically reduces cellular RNA content, consistent with the observed findings for patients with locally advanced breast cancer treated with FEC-D chemotherapy followed by radiation treatment. Similar findings were observed when the effects of the above treatments on RIN values were examined in SKBR3 (HER2+, ER−) cells (FIG. 6B).

[7] = system: breast cancer, T3, T4 or TxN2 disease; settings: cited from earlier work
metastatic breast cancer = settings: cited from earlier work
[8] = system: breast cancer, T1c-T3 N0-N1 disease; settings: preoperative AC alone versus AC with addition of docetaxel; cited from earlier work
[9] = system: locally advanced breast cancer; settings: paclitaxel 175 mg/m^2 and 5FU with 50.4 Gy, then 3 cycles of FEC, then surgery; 23 patients; cited from earlier work
[10] = system: stage IIB to III locally advanced breast cancer; settings: cited from earlier work
[11] = pre-treated with 0.1 μM docetaxel prior to 10 Gray radiation
[12] = after 4 cycles of CVAP, 4 cycles of docetaxel versus 4 more cycles of CVAP, intention-to-treat
[13] = 35 mg/m^2 weekly for 3 of every 4 weeks
[14] = paclitaxel 30 mg/m^2 twice weekly with radiation to 45 Gy, then surgery

SMILES: COc1cccc2c1C(=O)c1c(O)c3c(c(O)c1C2=O)C[C@@](O)(C(=O)CO)C[C@@H]3O[C@H]1C[C@H](N)[C@@H](O)[C@H](C)O1 [Epirubicin]
- RIN value vs Epirubicin dose (A2780 cells [1]; low doses of Epirubicin): loss in RIN value
- RDI value vs Epirubicin dose (A2780 cells [1]; low drug doses): RDI values increase
- RNA concentration vs Epirubicin dose (A2780 cells [1]; low drug doses): increased loss in RNA concentration
- RIN value vs Epirubicin dose (MCF-7 cells; combined with 10 Gy radiation): loss in RIN value
- RNA concentration vs Epirubicin dose (MCF-7 cells; increasing doses of Epirubicin): loss in RNA concentration
- RDI value vs Epirubicin dose (MCF-7 cells; with radiation, up to 100 uM Epirubicin): increase in RDI value

SMILES: CC(=O)O[C@@]12CO[C@@H]1C[C@H](O)[C@@]1(C)C(=O)[C@H](O)C3=C(C)[C@@H](OC(=O)[C@H](O)[C@@H](NC(=O)OC(C)(C)C)c4ccccc4)C[C@@](O)([C@@H](OC(=O)c4ccccc4)[C@H]21)C3(C)C [docetaxel]
- response rates [2]: up to 50%
- effect of concurrent docetaxel on radiation-induced reduction of RNA content and integrity ([3]; 0.1 μM docetaxel, 10 Gray): strongly augmented
- cellular RIN value, % of pre-treatment values ([3]; pre-incubated 24 hours with 0.1 μM docetaxel prior to 10 Gray radiation): 75%
- additional reduction of cellular RNA concentration ([3]; pre-incubation with 0.1 μM docetaxel, 10 Gray radiation, versus radiation alone): 6.5 fold
- mean RDI value (A2780 cells [4]; 10 Gy radiation + 5 nM Docetaxel compared with Docetaxel alone, 96 hr): increase in RDI value
- mean RIN value (A2780 cells [4]; 10 Gy radiation + 5 nM Docetaxel, 72 hr): increased loss in RIN value
- effect of concurrent docetaxel on effect of radiation on RNA content and integrity ([5]; 0.1 μM docetaxel, 10 Gray): only slightly augmented
- reduction in RNA levels ([5]; 10 Gray/0.1 μM docetaxel): 73%
- reduction in cellular RIN values [5, 11]: 4%
- effect of concurrent docetaxel on effects of radiation on RNA content and RNA integrity ([6]; 0.1 μM docetaxel, 10 Gray): strongly augmented
- cellular RNA concentration, % of untreated cells [6, 11]: 19%
- reduction in cellular RNA concentration [6, 11]: 5 fold
- reduction in cellular RIN values ([6]; radiation, cells pre-treated with docetaxel): 9%
- DFS ([7]; 38 months median follow-up): 90%
- OS ([7]; 38 months median follow-up): 97%
- cCR [7, 12]: 94%
- pCR [7, 12]: 31%
- overall survival (OS) (metastatic breast cancer; [13]): 18.6 months
- progression-free survival (metastatic breast cancer; [13]): 5.5 months
- overall survival (OS) (metastatic breast cancer; 100 mg/m^2 every 3 weeks): 18.3 months
- progression-free survival (metastatic breast cancer; 100 mg/m^2 every 3 weeks): 5.7 months
- overall serious toxicity (metastatic breast cancer; Q 3-week arm): 88.1%
- overall serious toxicity (metastatic breast cancer; weekly arm): 55.9%
- clinical complete response (cCR) [8]: 63.6%
- pCR [8]: 26.1%
- proportion of patients with negative nodes [8]: 58.2%

SMILES: CC(=O)O[C@H]1C(=O)[C@@]2(C)[C@H]([C@H](OC(=O)c3ccccc3)[C@]3(O)C[C@H](OC(=O)[C@H](O)[C@@H](NC(=O)c4ccccc4)c4ccccc4)C(C)=C1C3(C)C)[C@]1(OC(C)=O)CO[C@@H]1C[C@@H]2O [paclitaxel]
- clinical CR [9]: 82.6%
- overall 2-year survival [9]: 80.7%
- pCR [9]: 52.2%
- patients achieving a pCR [10, 14]: Sixteen
- patients achieving a pPR [10, 14]: 18%
- grade 4 leucopenia ([10]; postoperative phase): 10%
- grade 4 toxicities ([10]; preoperative chemoradiation phase, paclitaxel 30 mg/m^2 twice weekly with radiation to 45 Gy): No grade 4 toxicities were observed
